Source: patent US7501434B2, “6-carboxy-normorphinan derivatives, synthesis and uses thereof” (Wyeth, priority 2006, dated 2009)

Legend:
Kappa 1 = Kappa 1 (UniProt P41144); assay type: binding
Delta 2 (h) = Delta 2 (h) (Homo sapiens, UniProt P41143); test: Neurotransmitter assay (radioligand binding), Delta 2 (h); conditions: radioligand [3H]-Naltrindole
[1] = Partition coefficient determination (1-octanol/water); assay type: physicochemical; conditions: pH: 2.2
Method: The partition coefficient of Compound I-1 was determined by the following method. • 1. 20.131 mg of Compound I-1 was dissolved in 2 mL of water saturated with 1-octanol. • 2. 2 mL of 1-octanol saturated with water was added to the solution from step 1. • 3. The two layers were shaken over night at room temperature. • 4. The two layers were analyzed for the concentration of Compound I-1.

[2] = target: T1, human recombinant Mu opioid receptors (Homo sapiens, UniProt P35372); test: cell-based
T1 construct: expressed in transfected cells; host or cells: CHO cells

Mu (h) = Mu (h) (Homo sapiens, UniProt P35372); assay type: binding
Aqueous solubility = assay type: physicochemical; conditions: thermodynamic from solid; pH: 2.2, water
Method: >56 mg/ml (pH: 2.2) by adding certain additive amounts of I-1 to 1 ml of water.

[3] = Administration in GI-physiology altered dogs (plasma pharmacokinetics); assay type: in vivo; conditions: male, beagle, dog, po, 50 mg, single 50 mg capsule
Method: A 50 mg capsule formulation of Compound Ia was screened in gastrointestinal (GI) physiology regulated male beagle dogs. Atropine (˜20 μg/kg; IV) and pentagastrin (˜10 μg/kg; IM) were administered 15 minutes prior to formulation administration and another dose of pentagastrin (10 μg/kg; IM) was administered 30 minutes post dose. Atropine slows down canine GI motility and pentagastrin decreases pH resulting in GI conditions almost similar to that of humans. The capsules ([…]) via oral administration following an overnight fast and blood samples were drawn at 0 (predose), 0.5, 1, 2, 3, 4, 6, 8, 12, 24 and 48 hours after dosing; plasma was separated and assayed for Compound Ia content. All dogs were fed 4 hours post dose.
50 mg Compound Ia capsule contained neat 51.5 mg of Compound Ia 97% purity (50 mg of Compound Ia), filled in #AA-DB HGC Swedish orange capsule.
Bioanalytical results were received and a preliminary PK assessment was performed. Individual dog plasma Compound Ia concentration-time profiles were subjected to noncompartmental pharmacokinetic analyses (WinNonlin, Model 200). The following pharmacokinetic parameters were determined for each dog, and descriptive statistics were calculated: AUC, Cmax, and tmax.

[4] = white crystalline powder from Mallinckrodt Pharmaceuticals; cited from earlier work
μ opioid = μ opioid (Homo sapiens, UniProt P35372); conditions: from WO2006/127898 and WO2006/127899; cited from earlier work
Chain of μ opioid (P35372 whole entry): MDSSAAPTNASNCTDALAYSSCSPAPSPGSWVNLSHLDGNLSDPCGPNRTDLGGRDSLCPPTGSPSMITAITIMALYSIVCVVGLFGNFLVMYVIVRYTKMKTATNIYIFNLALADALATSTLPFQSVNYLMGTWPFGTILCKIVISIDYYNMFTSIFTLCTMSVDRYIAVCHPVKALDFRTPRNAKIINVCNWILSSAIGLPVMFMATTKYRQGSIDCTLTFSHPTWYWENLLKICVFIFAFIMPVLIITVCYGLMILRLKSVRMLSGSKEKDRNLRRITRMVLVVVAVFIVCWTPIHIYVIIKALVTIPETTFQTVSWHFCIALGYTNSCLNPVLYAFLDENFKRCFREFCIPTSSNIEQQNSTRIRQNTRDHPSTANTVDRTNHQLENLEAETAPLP

Chain of Delta 2 (h) (P41143 whole entry): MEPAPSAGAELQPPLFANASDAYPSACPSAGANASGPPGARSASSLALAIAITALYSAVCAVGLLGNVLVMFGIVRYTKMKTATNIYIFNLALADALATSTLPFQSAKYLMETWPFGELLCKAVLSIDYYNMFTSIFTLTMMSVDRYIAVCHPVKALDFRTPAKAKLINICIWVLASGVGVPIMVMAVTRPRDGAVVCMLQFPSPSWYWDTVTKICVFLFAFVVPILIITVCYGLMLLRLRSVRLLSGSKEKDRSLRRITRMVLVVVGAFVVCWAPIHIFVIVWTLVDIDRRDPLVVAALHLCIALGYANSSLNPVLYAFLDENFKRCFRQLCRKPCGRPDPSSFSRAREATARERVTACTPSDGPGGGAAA
Chain of Mu (h) (P35372 whole entry): as the sequence (P35372 whole entry) above
T1 sequence (P35372 whole entry): as above

## C[N+]1(CC2CC2)CC[C@]23c4c5ccc(O)c4O[C@H]2[C@](O)(C(=O)O)C[C@@]3(O)[C@H]1C5 (stereo partly drawn) [Compound Ia, (3R,4R,4aS,6aR,11bS)-6-carboxy-3-(cyclopropylmethyl)-4-a,6,8-trihydroxy-3-methyl-1,2,3,4,4a,5,6,6a-octahydro-4,11-methano[1]benzofuro[3′,2′:2,3]cyclopenta[1,2-c]pyridin-3-ium]
Kappa 1
  Percent Inhibition (Average; N = 2): 82.09%
Delta 2 (h)
  Percent Inhibition (Average; N = 2): 44.47%
[1]
  logP: -2.15
[2]
  IC50: 170 nM
Mu (h)
  Percent Inhibition (Average; N = 2): 81.62%
Aqueous solubility
  solubility: > 56 mg/mL
[3]; Dog 1, PO
  AUC(0-inf): 4690 ng·h/mL
  AUC(0-t): 4630 ng·h/mL
  Cmax: 825 ng/mL
  Tmax: 2 h
  half-life: 3.9 h
[3]; Dog 2, PO
  AUC(0-inf): 7740 ng·h/mL
  AUC(0-t): 7720 ng·h/mL
  Cmax: 1670 ng/mL
  Tmax: 3 h
  half-life: 2.8 h
[3]; Dog 3, PO
  AUC(0-inf): 6220 ng·h/mL
  AUC(0-t): 6210 ng·h/mL
  Cmax: 1580 ng/mL
  Tmax: 1 h
  half-life: 1.1 h
[3]; Mean, N 3 dogs
  AUC(0-inf): 6220 ng·h/mL
  AUC(0-t): 6190 ng·h/mL
  Cmax: 1360 ng/mL
  Tmax: 2 h
  half-life: 2.6 h
[3]; Median, N 3 dogs
  AUC(0-inf): 6220 ng·h/mL
  AUC(0-t): 6210 ng·h/mL
  Cmax: 1580 ng/mL
  Tmax: 2 h
  half-life: 2.8 h

## C[N+]1(CC2CC2)CC[C@]23c4c5ccc(O)c4O[C@H]2C(=O)CC[C@@]3(O)[C@H]1C5 (stereo partly shown) [methylnaltrexone]
[4]
  Solubility in water: freely soluble in water

## C[N@@+]1(CC2CC2)CC[C@]23c4c5ccc(O)c4O[C@H]2C(=O)CC[C@@]3(O)C1C5 [R-methylnaltrexone]
μ opioid
  Activity at μ opioid receptor (agonist/antagonist): antagonist activity

## C[N+]1(CC2CC2)CC[C@]23c4c5ccc(O)c4O[C@H]2C(=O)CC[C@@]3(O)[C@H]1C5 (stereo partly shown) [S-methylnaltrexone]
μ opioid
  Activity at μ opioid receptor (agonist/antagonist): peripheral μ opioid agonist
